From US20250064904A1 (priority 2019, published 2025)

Assays:
[1] = test system: salivary glands; details: in vivo; cited from earlier work
[2] = test system: salivary glands (submandibular, parotid); parameters: species or system human; details: in vivo

## botulinum toxin type A
[1]
  onset of action: around six
[2]
  uptake of 18F-PSMA in the treated glands: significantly reduced
  uptake of 68Ga-PSMA in the glands treated with botulinum toxin: significantly reduced
  uptake of 177Lu-PSMA in the treated glands: significantly reduced
  uptake of 225Ac-PSMA-617 in the treated glands: significantly reduced
